Test results published in ChEMBL document CHEMBL1133139, “Stereochemistry of halopyridyl and thiazolyl thiourea compounds is a major determinant of their potency as nonnucleoside inhibitors of HIV-1 reverse transcriptase” (Bioorg Med Chem Lett, 2000).

Experiments:
[1] = molecular target: T1, Human immunodeficiency virus type 1 reverse transcriptase (Human immunodeficiency virus 1, UniProt Q72547); assay: Binding affinity against HIV reverse transcriptase (Estimated Ki)
H9 = assay: Inhibitory activity against multidrug resistant HIV-1 strain RT-MDR; format: functional, cell-based; conditions: Homo sapiens
[2] = test system: Human immunodeficiency virus 1; assay: Inhibitory activity against NNI-resistant HIV-1 strain A17 with Y181C,K103N mutation; format: functional, organism-based
[3] = Inhibit the replication of the HIV-1 strain […] in human peripheral blood mononuclear cell; format: functional
[4] = test system: Human immunodeficiency virus 1; assay: Inhibitory activity against NNI-resistant HIV-1 strain A17 with Y181C mutation; format: functional, organism-based
[5] = molecular target: T1, Human immunodeficiency virus type 1 reverse transcriptase; assay: Compound was evaluated for its inhibitory activity against recombinant HIV-1 Reverse transcriptase using cell free RT inhibition assay
[6] = Compound was evaluated for its ability to inhibit the replication of the HIV-1 strain […] in human peripheral blood mononuclear cells; format: functional

Row | IC50 [5] | SMILES | Ki [1] | IC50 (H9) | IC50 [2] | IC50 [3] | IC50 [4] | IC50 [6]
1 | – | S=C(NCCc1ccccn1)Nc1ccc(Br)cn1 [TROVIRDINE] | 600 nM | 20 nM | > 100000 nM | 7 nM | 500 nM | –
2 | > 100000 nM | C[C@H](/N=C(\S)Nc1ccc(Br)cn1)C1CCCCC1 | > 100000 nM | – | – | > 1000 nM | – | –
3 | > 100000 nM | C[C@H](NC(=S)Nc1nccs1)C1CCCCC1 | > 100000 nM | – | – | > 1000 nM | – | –
4 | > 100000 nM | C[C@H](/N=C(\S)Nc1ccc(Cl)cn1)c1ccccc1 | – | – | – | – | – | –
5 | > 100000 nM | C[C@@H](/N=C(\S)Nc1ccccn1)C1CCCCC1 | > 100000 nM | – | – | > 1000 nM | – | –
6 | – | CC(C)Nc1cccnc1N1CCN(C(=O)c2cc3cc(NS(C)(=O)=O)ccc3[nH]2)CC1 [DELAVIRDINE] | – | 400 nM | > 100000 nM | 9 nM | 50000 nM | –
7 | > 100000 nM | C[C@H](NC(=S)Nc1ccccn1)C1CCCCC1 | > 100000 nM | – | – | > 1000 nM | – | –
8 | > 100000 nM | C[C@H](/N=C(\S)Nc1ccc(Br)cn1)c1ccccc1 | – | – | – | > 1000 nM | – | –
9 | > 100000 nM | C[C@H](/N=C(\S)Nc1ccc(Cl)cn1)C1CCCCC1 | > 100000 nM | – | – | > 1000 nM | – | –
10 | – | Fc1ccccc1CCNC(=S)Nc1ccc(Br)cn1 | 600 nM | 5 nM | 41000 nM | < 1 nM | 200 nM | –
11 | – | Cc1ccnc2c1NC(=O)c1cccnc1N2C1CC1 [NEVIRAPINE] | – | 5000 nM | > 100000 nM | 34 nM | > 100000 nM | –

Row | SMILES | IC50 [5] | Ki [1] | IC50 (H9) | IC50 [2] | IC50 [3] | IC50 [4] | IC50 [6]
12 | C[C@@H](NC(=S)Nc1ccc(Cl)cn1)c1ccccc1 | 1200 nM | – | 10 nM | 10200 nM | 10 nM | 200 nM | –
13 | C[C@@H](NC(=S)Nc1ccc(Br)cn1)C1CCCCC1 | 1200 nM | 1100 nM | 200 nM | 10000 nM | – | 400 nM | 1 nM
14 | C[C@@H](NC(=S)Nc1ccc(Br)cn1)c1ccccc1 | 1600 nM | – | 5 nM | 2700 nM | 10 nM | 10 nM | –
15 | C[C@@H](/N=C(\S)Nc1nccs1)C1CCCCC1 | 13000 nM | 12000 nM | 5600 nM | 5800 nM | 1 nM | 900 nM | –
16 | C[C@@H](/N=C(\S)Nc1ccc(Cl)cn1)C1CCCCC1 | 1400 nM | 1200 nM | 60 nM | 8200 nM | 25 nM | 70 nM | –
